Our source for the IC50 values is ChEMBL document CHEMBL1759842, “Discovery of non-glucoside SGLT2 inhibitors” (Bioorg Med Chem Lett, 2011).

Each structure is given as a SMILES string.

One assay has as its target T1, SGLT1 protein (Mus musculus, UniProt Q9QXI6).
T1 sequence (Q9QXI6 whole entry): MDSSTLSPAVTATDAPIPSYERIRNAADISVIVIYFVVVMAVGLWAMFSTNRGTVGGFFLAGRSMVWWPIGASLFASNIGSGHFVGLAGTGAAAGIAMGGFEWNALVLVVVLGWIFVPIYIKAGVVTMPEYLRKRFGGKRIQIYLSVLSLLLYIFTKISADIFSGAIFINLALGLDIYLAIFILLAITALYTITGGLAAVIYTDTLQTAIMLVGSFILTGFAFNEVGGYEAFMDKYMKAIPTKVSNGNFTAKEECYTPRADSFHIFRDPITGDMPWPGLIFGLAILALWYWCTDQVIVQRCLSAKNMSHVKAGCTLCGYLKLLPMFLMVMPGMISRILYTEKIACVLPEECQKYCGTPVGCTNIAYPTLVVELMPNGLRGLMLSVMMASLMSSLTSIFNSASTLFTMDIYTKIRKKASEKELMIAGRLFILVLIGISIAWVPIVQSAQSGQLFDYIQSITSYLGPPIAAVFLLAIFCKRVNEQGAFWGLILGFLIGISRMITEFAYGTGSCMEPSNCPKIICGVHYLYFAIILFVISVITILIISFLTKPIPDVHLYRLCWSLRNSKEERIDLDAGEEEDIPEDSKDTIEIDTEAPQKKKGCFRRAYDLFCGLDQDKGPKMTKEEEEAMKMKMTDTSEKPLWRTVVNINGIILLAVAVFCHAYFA
Nature of the assay: Inhibition of mouse SGLT1 expressed in CHO cells assessed as inhibition of [14C]-alpha-methyl-D-glucopyranoside transport after 60 mins by scintillation counting. Type of assay: cell-based.

The target in assay [1] is T2, Sodium/glucose cotransporter 1 (Rattus norvegicus, UniProt P53790).
T2 sequence (P53790 whole entry): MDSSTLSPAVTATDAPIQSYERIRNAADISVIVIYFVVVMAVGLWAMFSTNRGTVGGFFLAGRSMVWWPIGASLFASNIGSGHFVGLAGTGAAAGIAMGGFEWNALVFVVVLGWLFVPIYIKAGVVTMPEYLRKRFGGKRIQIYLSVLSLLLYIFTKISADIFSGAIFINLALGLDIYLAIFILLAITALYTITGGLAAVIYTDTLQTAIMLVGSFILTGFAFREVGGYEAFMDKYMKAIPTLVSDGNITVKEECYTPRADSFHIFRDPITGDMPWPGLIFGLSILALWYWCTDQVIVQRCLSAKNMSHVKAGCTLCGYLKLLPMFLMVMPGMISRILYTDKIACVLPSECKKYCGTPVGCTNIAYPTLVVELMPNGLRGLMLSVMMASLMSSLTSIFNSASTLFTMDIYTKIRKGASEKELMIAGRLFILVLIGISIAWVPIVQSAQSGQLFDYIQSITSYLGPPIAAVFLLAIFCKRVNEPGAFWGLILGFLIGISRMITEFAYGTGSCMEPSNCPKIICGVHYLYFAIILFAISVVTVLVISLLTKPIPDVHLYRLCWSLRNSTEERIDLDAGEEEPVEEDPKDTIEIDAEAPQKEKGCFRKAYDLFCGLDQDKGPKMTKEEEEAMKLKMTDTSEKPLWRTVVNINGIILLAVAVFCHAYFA
Nature of the assay: Inhibition of rat SGLT1 expressed in CHO cells assessed as inhibition of [14C]-alpha-methyl-D-glucopyranoside transport after 60 mins by scintillation counting. Type of assay: cell-based.

Usually IC50 stands for the concentration that inhibits the measured activity by half. Consider `Cn1c(CN2C(=O)CSc3ccc(C(F)(F)F)cc32)nnc1SCc1ccc(Cl)cc1`, for which the IC50 worked out at 3 µM at SGLT1 protein and 9 µM in assay [1].
